Laboratory results published in patent US20160038474A1, “COMPOSITIONS AND METHODS FOR THE MODULATION OF HEMOGLOBIN (S)” (GLOBAL BLOOD THERAPEUTICS, INC., priority 2013, published 2016).

Columns and labels:
[1] = biological target: T1, whole blood from homozygous sickle cell patients, Hb(S) (Homo sapiens, UniProt P68871+P69905, E7V); assay: Reverse Hemox assay (oxygen equilibrium curves), whole blood; assay type: cell-based; settings: for Whole Blood OEC (delta p50%): [Hb] 1 mM
T1 construct: Oxygen Equilibrium Curves (OEC) of whole blood before and after treatment; from tissue; host or cells: whole blood (or washed red blood cells) of homozygous sickle cell patients
Protocol: Oxygen Equilibrium Curves (OEC) of whole blood before and after treatment with different concentrations of compounds 12, 22 and 23 were performed as follows using a HEMOX analyzer (TCS Scientific, New Hope, Pa.). Blood samples from homozygous sickle cell patients were obtained though the Hemoglobinopathy Center at Children's Hospital Oakland Research Institute (CHORI) with Institutional Review Board approval. The hematocrit was adjusted to 20% using autologous plasma and the blood samples were incubated for 1 hour at 37° C. in absence or presence of compounds. 100 μl of these samples were added to 5 mL of Hemox butter (30 mM TES, 130 mM NaCl, 5 mM KCl, pH=7.4) at 37° C. and then transferred to the Hemox sample chamber. The samples were saturated with oxygen by flushing with compressed air for 10 minutes. The samples were then flushed with pure nitrogen and the respective absorbances of oxy- and deoxy-Hb are recorded as a function of the solution pO2. The oxygen equilibrium data were then fitted to the Hill Model to obtain values for p50. The deoxygenation curves for both whole blood alone (control) and whole blood in the presence of the compound were collected with the TCS software.
Results: Table 3 below lists the delta p50% values where “+” indicates a delta p50% of between 0 and 29, “++” indicates a delta p50% of between 30 and 50, and “+++” indicates a delta p50% of 50 or greater.
Reverse hemox assay was performed essentially as described in Example 2, above, using either washed red blood cells or whole blood.

purified Hb = purified Hb (Homo sapiens, UniProt P68871+P69905); assay: TCS Hemox analyzer with purified Hb; assay type: biochemical; settings: purified Hb 25 μM
Protocol: The agents were then assayed in a TCS Hemox analyzer using purified Hb at 25 μM.

purified HbS = biological target: T2, purified HbS (Homo sapiens, UniProt P68871+P69905, E7V); assay: HbS polymerization assay; assay type: biochemical; settings: for Polymerization DTcmpd-DTHbS: [HbS] 50 μM
T2 construct: HbS is purified by the CRO VIRUSYS, from blood obtained from homozygous sickle cell patients; tissue VIRUSYS (CRO that did the purification); host or cells: blood of homozygous sickle cell patients
Protocol: Polymerization assays are carried out in vitro using purified HbS exchanged into 1.8 M potassium phosphate buffer at pH 7.4. Using a slightly modified protocol (Antonini and Brunori, 1971). HbS is purified by the CRO VIRUSYS, from blood obtained from homozygous sickle cell patients through the Hemoglobinopathy Center at Children's Hospital Oakland Research Institute (CHORI) with Institutional Review Board approval. Compounds are prepared in 100% DMSO and a desired amount is added to 50 μM of purified HbS at a final DMSO concentration of 0.3%. Final potassium phosphate concentration is adjusted to 1.8 M using a combination of 2.5 M potassium phosphate stock solution and water at pH 7.4. The reaction mixture is incubated for an hour at 37° C. and then transferred into a 24-well plate for deoxygenation in a glove box containing 99.5% nitrogen and 0.5% oxygen. The 24-well plate is not covered and incubated at 4° C. on a plate cooler inside the glove box for one and a half hours. Fifty μl of the reaction mixture is transferred into a 96-well plate and the absorbance at 700 nm is measured every minute for one hour at 37° C. in a plate reader located inside the glove box. A plot of the absorbance against time is fitted using a Boltzman sigmoidal fit and the delay time (from zero to time at half Vmax) is measured. To compare and rank compounds, delay times are expressed as percent delay (% DT), which is defined as the difference in delay times for HbS/compound and HbS alone multiplied by 100 and divided by the delay time for HbS alone.
The ability of 5-HMF and compound 12 to delay HbS polymerization was evaluated as described in Example 2, above. Purified HbS (50 μM) was pre-incubated with 25 μM, 50 μM, or 100 μM of 5-HMF or compound 12, then passively de-oxygenated at 4° C. in 1.8 M potassium phosphate. Polymerization was induced via temperature jump from 4° C. to 37° C. Polymerization was quantified based on turbidity of the HbS solution under continued hypoxia.

HbS/A = biological target: T3, HbS/A (Homo sapiens, UniProt P68871+P69905, E7V); assay: R/T assay (relaxed-to-tense transition); assay type: biochemical; settings: HbS/A 3 μM
T3 construct: A mixture of HbS/A was purified from blood obtained from homozygous sickle cell patients; from tissue; host or cells: blood of homozygous sickle cell patients
Protocol: This ability can be expressed as a “delta R” value (i.e., the change in the time-period of the R state after hemoglobin is treated with a compound, as compared to the period without treatment with the compound). Delta R is the % R to remaining after the compounds treatment compared with no treatment (e.g., if R % without treatment is 8% while with treatment with a target compound is 48% R at 30 μM, then % R is 40% for that compound.
A mixture of HbS/A was purified from blood obtained from homozygous sickle cell patients though the Hemoglobinopathy Center at Children's Hospital Oakland Research Institute (CHORI) with Institutional Review Board approval. HbS/A (at a final concentration of 3 μM) was incubated for 1 hr at 37° C. in presence or absence of compounds in […] potassium phosphate buffer, pH=7.4 and 30 μM 2,3 diphosphoglycerate (DPG) in 96 well plates in a final volume of 160 μl. Compounds were added at different concentrations (3 μM to 100 μM final concentrations). Plates were covered with a Mylar film. After incubation was completed the Mylar cover was removed and the plates were placed in a Spectrostar Nano plate reader previously heated at 37° C. Five minutes later, N2 (flow rate=20 L/min) was flowed through the spectrophotometer. Spectroscopic measurements (300 nm to 700 nm) were taken every 5 min for 2 hours. Data analysis was performed by using linear regression from the data retrieved for all wavelengths.

red blood cells = assay: Sickling assay under hypoxia; assay type: cell-based; settings: for Sickling (% sickled): [HbS] ~1 mM (20% HCT), No Cmpd 85
Protocol: For sickling experiments, red blood cells were pre-incubated with compound 12 or 5-HMF, then subjected to hypoxia (pO2 of ˜3 mmHg) in a 37° C. humidified chamber for 0.5 hr and subsequently imaged using a light microscope. The percentage of sickled cells in each image was calculated using CellVigene software.

CC(C)n1nccc1-c1ncccc1COc1cccc(O)c1C=O [Compound 12, 2-hydroxy-6-[[2-(2-propan-2-ylpyrazol-3-yl)pyridin-3-yl]methoxy] benzaldehyde]
Reverse Hemox delta p50% (class) ([1]; 1 mM compound, whole blood, hematocrit 20%): +++ (a delta p50% of 50 or greater) | Reverse Hemox delta p50% ([1]; 1 mM compound, whole blood, hematocrit 20%, 1 hour 37° C.): 79.83% | Whole Blood OEC (delta p50%) ([1]; [cmp] 1 mM): 80% | Whole Blood OEC (delta p50%) ([1]; [cmp] 3 mM): >80% | p50 ([1]; whole blood from sickle cell disease patients, control blood p50 30 mm Hg): 6 mm Hg | improvement of oxygen affinity versus Hb control (purified Hb; compound:Hb ratio of 1:3): 15% | improvement of oxygen affinity versus Hb control (purified Hb; stoichiometric concentrations): greater than 70% | Polymerization % DT (class) (purified HbS; 75 μM compound, 50 μM HbS): †† (activity >80% but ≦120%) | Polymerization % DT (percent delay) (purified HbS; 75 μM compound, 50 μM HbS): 108.56% | HbS polymerization delay (in words) (purified HbS; HbS 50 μM, 25, 50 or 100 μM compound): delayed HbS polymerization in a dose-dependent manner | Polymerization DTcmpd-DTHbS (purified HbS; [Cmpd] 25 μM): 3.9 min | Polymerization DTcmpd-DTHbS (purified HbS; [Cmpd] 50 μM): 12.8 min | Polymerization DTcmpd-DTHbS (purified HbS; [Cmpd] 100 μM): 22.9 min | R-T delta R (HbS/A; 9 μM compound): 65.45 | R-T delta R (class) (HbS/A; 9 μM compound): +++ (a delta R of 50 or greater) | R-T delta R (HbS/A; 10 μM compound): 62.75 | R-T delta R (class) (HbS/A; 10 μM compound): +++ (a delta R of 50 or greater) | Sickling (% sickled) (red blood cells; [Cmpd] 1 mM): 41% | Sickling (% sickled) (red blood cells; [Cmpd] 2 mM): 33% | Sickling (% sickled) (red blood cells; [Cmpd] 5 mM): 28% | sickling of RBCs (in words) (red blood cells; hypoxia 0.5 hr, 37° C.): prevented sickling of RBCs under hypoxia
